# Results from publication PMC7034070, “Synthesis, anti-inflammatory, cytotoxic, and COX-1/2 inhibitory activities of cyclic imides bearing 3-benzenesulfonamide, oxime, and β-phenylalanine scaffolds: a molecular docking study” (Journal of Enzyme Inhibition and Medicinal Chemistry, 2020).
# “And” between values parts separate entries of the source, which are not always exact repeats. Equal values may be shown once.
# What was measured:
# [1] = test system: carrageenan induced rat paw oedema; assay: rat carrageenan-induced foot paw oedema model; type: in vivo; details: for Mean % increase in paw weight ± SEM / % Inhibition of paw oedema from control group: 2 h after carrageenan; for Mean % increase in paw weight ± SEM: control group 165.6 ± 1.6; for % Inhibition of paw oedema from control group: single dose screen (Table 1); for ED50: from three graded doses (45, 65, 80 mg/kg)
# Description: Anti-inflammatory assessment of the newly synthesised compounds was carried out using an in vivo rat carrageenan-induced foot paw oedema model, as reported previously[16]^,[17].
# COX-1 = molecular target: T1, COX-1 (Ovis aries, UniProt P05979); assay: colorimetric COX (ovine) inhibitor screening assay kit; type: biochemical; details: ovine COX-1, mean of two determinations
# T1 construct: purchased Cayman Chemicals Inc., Ann Arbour, MI
# T1 sequence (P05979 25-600): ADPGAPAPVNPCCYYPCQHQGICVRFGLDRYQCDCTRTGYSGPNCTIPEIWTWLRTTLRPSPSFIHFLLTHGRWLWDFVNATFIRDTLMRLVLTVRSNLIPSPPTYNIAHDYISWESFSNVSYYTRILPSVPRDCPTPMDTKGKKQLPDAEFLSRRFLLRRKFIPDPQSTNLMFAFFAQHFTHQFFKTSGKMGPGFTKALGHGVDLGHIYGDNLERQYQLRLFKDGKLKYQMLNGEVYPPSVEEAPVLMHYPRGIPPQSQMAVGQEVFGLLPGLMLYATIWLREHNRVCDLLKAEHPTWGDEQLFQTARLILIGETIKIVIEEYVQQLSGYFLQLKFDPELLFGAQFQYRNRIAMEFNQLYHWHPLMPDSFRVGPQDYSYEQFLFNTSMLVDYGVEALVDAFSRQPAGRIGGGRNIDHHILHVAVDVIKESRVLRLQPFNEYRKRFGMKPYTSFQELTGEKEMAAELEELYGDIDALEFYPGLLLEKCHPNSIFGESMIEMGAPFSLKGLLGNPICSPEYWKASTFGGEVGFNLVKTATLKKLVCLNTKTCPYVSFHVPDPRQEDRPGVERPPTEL
# Text: (§1) To determine the relative ability of the test compounds and reference drugs to inhibit COX-1/COX-2 isozymes, we used the colorimetric COX (ovine) inhibitor screening assay kit (Cayman Chemicals Inc., Ann Arbour, MI), according to the manufacturer’s instructions[3]^,[10]^,[11]^,[20].
# COX-2 = molecular target: T2, COX-2 (Ovis aries, UniProt P79208); assay: as above; type: biochemical; details: for SI, selectivity index (COX-1 IC50/COX-2 IC50): ovine COX-1/COX-2; for IC50: ovine COX-2, mean of two determinations
# T2 construct: purchased Cayman Chemicals Inc., Ann Arbour, MI
# T2 sequence (P79208 17-603): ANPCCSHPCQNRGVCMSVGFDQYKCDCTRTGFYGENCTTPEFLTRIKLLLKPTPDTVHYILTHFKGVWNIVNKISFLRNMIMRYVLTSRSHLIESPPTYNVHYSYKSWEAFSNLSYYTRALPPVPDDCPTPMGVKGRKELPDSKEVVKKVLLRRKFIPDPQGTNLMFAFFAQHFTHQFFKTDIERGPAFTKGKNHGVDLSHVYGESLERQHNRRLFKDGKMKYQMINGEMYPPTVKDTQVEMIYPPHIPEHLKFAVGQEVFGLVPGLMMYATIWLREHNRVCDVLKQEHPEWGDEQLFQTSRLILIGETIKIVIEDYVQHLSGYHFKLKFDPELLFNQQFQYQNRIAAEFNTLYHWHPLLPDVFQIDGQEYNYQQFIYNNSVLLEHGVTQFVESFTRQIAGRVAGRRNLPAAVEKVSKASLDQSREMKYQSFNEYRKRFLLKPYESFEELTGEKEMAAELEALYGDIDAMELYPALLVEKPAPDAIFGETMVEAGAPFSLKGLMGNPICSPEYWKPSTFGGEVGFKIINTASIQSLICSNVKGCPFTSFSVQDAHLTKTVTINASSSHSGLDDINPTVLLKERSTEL
# Text: as §1
# mice = assay: Ulcerogenicity measurement; type: in vivo; details: for Average number of ulcers / Mean sum of lengths of elongated ulcer: mice; for Mean sum of lengths of elongated ulcer: ± SEM; for level of ulcerogenic activity (in words): relative to diclofenac and celecoxib
# Description: Ulcerogenicity was evaluated according to a previously reported method[6]^a,[17]^,[18]. The number and total length of the ulcers for each animal were measured and their averages were calculated and used as the ulcer indices.
SMILES,Mean % increase in paw weight ± SEM [1] [%],% Inhibition of paw oedema from control group [1],IC50 (COX-1) [µM],"SI, selectivity index (COX-1 IC50/COX-2 IC50) (COX-2)",IC50 (COX-2) [µM],melting point [°C],% Inhibition of paw oedema from control group ([1]; listed as celecoxib) [%],Percentage inhibition of paw oedema from control group ([1]; dose 45 mg/kg) [%],Percentage inhibition of paw oedema from control group ([1]; dose 65 mg/kg) [%],Percentage inhibition of paw oedema from control group ([1]; dose 80 mg/kg) [%],ED50 [1] [mg/kg],Average number of ulcers (mice),Mean sum of lengths of elongated ulcer (mice) [mm],level of ulcerogenic activity (in words) (mice)
"NS(=O)(=O)c1cccc(N2C(=O)c3cccc4cccc(c34)C2=O)c1 [Compound 10, 3-(1,3-Dioxo-1H-benzo[de]isoquinolin-2(3H)-yl)benzenesulfonamide]",93.7 ± 0.4,49.2% and 49.2 ± 0.6%,> 50,>14.3,3.5,241 to 243,–,–,–,–,–,–,–,–
"Cc1ccc(-c2cc(C(F)(F)F)nn2-c2ccc(S(N)(=O)=O)cc2)cc1 [Celecoxib, 4-[5-(4-methylphenyl)-3-(trifluoromethyl)-1H-pyrazol-1-yl]benzenesulfonamide, reference compound]",27.3 ± 0.4,85.6 ± 0.4%,–,–,–,–,85.6,69.8,85.6,93.5,34.1,5,5.8 ± 0.77,–
C/C(=N/O)c1ccc(N2C(=O)c3cc(Cl)c(Cl)cc3C2=O)cc1 [Compound 16],115.3 ± 1.2,39.6% and 39.6 ± 0.4%,–,–,–,–,–,–,–,–,–,–,–,–
NS(=O)(=O)c1cccc(N2C(=O)c3ccc([N+](=O)[O-])cc3C2=O)c1 [Compound 9],35.6 ± 0.1,80.9% and 80.9 ± 0.9%,> 50,>333.3,0.15,–,–,69.8,80.9,90.5,37,4,1.7 ± 0.21,very low levels of ulcerogenic activity
C/C(=N/O)c1ccc(N2C(=O)c3c(Cl)c(Cl)c(Cl)c(Cl)c3C2=O)cc1 [Compound 17],135.6 ± 0.8,25.1% and 25.1 ± 0.6%,–,–,–,–,–,–,–,–,–,–,–,–
"O=C(O)CC(c1ccccc1)N1C(=O)CCC1=O (stereo not drawn) [Compound 21, 3-(2,5-Dioxopyrrolidin-1-yl)-3-phenylpropanoic acid]",98.9 ± 0.6,46.4% and 46.4 ± 0.3%,16.6,0.55,30.3,259 to 261,–,–,–,–,–,–,–,–
"CC(=NO)c1ccc(N2C(=O)c3cccc4cccc(c34)C2=O)cc1 [Compound 19, 2-(4-(1-(Hydroxyimino)ethyl)phenyl)-1H-benzo[de]isoquinoline-1,3(2H)-dione]",57.6 ± 0.5,68.8% and 68.8 ± 0.4%,> 50,>178.6,0.28,> 300,–,–,–,–,–,–,–,–
Cc1ccc2c(c1)C(=O)N(C(CC(=O)O)c1ccccc1)C2=O (stereo not drawn) [Compound 24],123.4 ± 0.9,33.1 ± 0.4%,24.8,0.68,36.3,–,–,–,–,–,–,–,–,–
O=C(O)CC(c1ccccc1)N1C(=O)c2ccccc2C1=O (stereo not drawn) [Compound 23],65.6 ± 0.3,64.4% and 64.4 ± 0.7%,10.9,0.49,22.3,–,–,–,–,–,–,–,–,–
O=C(O)CC(c1ccccc1)N1C(=O)C2CC=CCC2C1=O (stereo not drawn) [Compound 22],69.1 ± 0.5,62.9 ± 0.4%,11.6,0.46,25.1,–,–,–,–,–,–,–,–,–
C/C(=N/O)c1ccc(N2C(=O)C3CC=CCC3C2=O)cc1 (stereo not drawn) [Compound 12],37.5 ± 0.5,79.7% and 79.7 ± 0.4%,> 50,>312.5,0.16,–,–,65.3,79.7,87.4,39.2,5,2.4 ± 0.13,ulcerogenic level similar to celecoxib and less than that of diclofenac
"O=C(O)Cc1ccccc1Nc1c(Cl)cccc1Cl [Diclofenac, reference compound]",30.1 ± 0.3,83.4% and 83.4 ± 0.5%,–,–,–,–,–,–,–,–,–,10,7.6 ± 0.89,–
"O=C(O)CC(c1ccccc1)N1C(=O)c2c(Cl)c(Cl)c(Cl)c(Cl)c2C1=O (stereo not drawn) [Compound 27, 3-Phenyl-3-(4,5,6,7-tetrachloro-1,3-dioxoisoindolin-2-yl)propanoic acid]",141.6 ± 1.0,21.2 ± 0.9%,–,–,–,280 to 282,–,–,–,–,–,–,–,–
"NS(=O)(=O)c1cccc(N2C(=O)c3cc(Cl)c(Cl)cc3C2=O)c1 [Compound 7, 3-(5,6-Dichloro-1,3-dioxoisoindolin-2-yl)benzenesulfonamide]",129.7 ± 0.9,29.7% and 29.7 ± 0.2%,–,–,–,256 to 258,–,–,–,–,–,–,–,–
"O=C(O)CC(c1ccccc1)N1C(=O)c2cc(Cl)c(Cl)cc2C1=O (stereo not drawn) [Compound 26, 3-(5,6-Dichloro-1,3-dioxoisoindolin-2-yl)-3-phenylpropanoic acid]",136.3 ± 0.8,24.4 ± 0.3%,–,–,–,205 to 207,–,–,–,–,–,–,–,–
C/C(=N/O)c1ccc(N2C(=O)c3ccc(C)cc3C2=O)cc1 [Compound 14],70.8 ± 0.6,61.6% and 61.6 ± 0.5%,> 50,>62.5,0.8,–,–,–,–,–,–,–,–,–
"O=C(O)CC(c1ccccc1)N1C(=O)c2cccc3cccc(c23)C1=O (stereo not drawn) [Compound 29, 3-(1,3-Dioxo-1H-benzo[de]isoquinolin-2(3H)-yl)-3-phenylpropanoic acid]",130.8 ± 0.7,27.0% and 27.0 ± 0.1%,–,–,–,151 to 153,–,–,–,–,–,–,–,–
C/C(=N/O)c1ccc(N2C(=O)c3ccccc3C2=O)cc1 [Compound 13],36.2 ± 0.2,80.4% and 80.4 ± 0.7%,> 50,>312.5,0.16,–,–,67.9,80.4,91.1,37.5,5,2.1 ± 0.23,ulcerogenic level similar to celecoxib and less than that of diclofenac
C/C(=N/O)c1ccc(N2C(=O)c3ccc(C(C)(C)C)cc3C2=O)cc1 [Compound 15],95.7 ± 0.9,48.1% and 48.1 ± 0.2%,> 50,>14.3,3.5,–,–,–,–,–,–,–,–,–
"CC(C)(C)c1ccc2c(c1)C(=O)N(C(CC(=O)O)c1ccccc1)C2=O (stereo not drawn) [Compound 25, 3-(5-(tert-Butyl)-1,3-dioxoisoindolin-2-yl)-3-phenylpropanoic acid]",129.0 ± 1.1,29.6 ± 0.7%,–,–,–,119 to 121,–,–,–,–,–,–,–,–
